From patent publication US20110172274A1, “FLUORO-SUBSTITUTED 3,4-DIARYL-4,5-DIHYDRO-1H-PYRAZOLE-1-CARBOXAMIDINE DERIVATIVES HAVING CB1-ANTAGONISTIC ACTIVITY” (priority 2008, published 2011)

What was measured:
[1] = target: T1, human cannabinoid CB1 receptors (Homo sapiens, UniProt P21554); assay: In vitro affinity for cannabinoid-CB1 receptors, [3H]CP-55,940 radioligand binding, CHO cell membranes; conditions: for Ki: CHO membranes, [3H]CP-55,940, means of at least two independent experiments, read-out: receptor binding h-CB1 receptor Ki; for factor of higher affinity for human CB1 receptors than non-fluorinated analog compound 24: (S)-(-)-enantiomers versus compound 24
T1 construct: expressed in transfected cells; host or cells: Chinese hamster ovary (CHO) cells, membrane preparations
T1 sequence (P21554 whole entry): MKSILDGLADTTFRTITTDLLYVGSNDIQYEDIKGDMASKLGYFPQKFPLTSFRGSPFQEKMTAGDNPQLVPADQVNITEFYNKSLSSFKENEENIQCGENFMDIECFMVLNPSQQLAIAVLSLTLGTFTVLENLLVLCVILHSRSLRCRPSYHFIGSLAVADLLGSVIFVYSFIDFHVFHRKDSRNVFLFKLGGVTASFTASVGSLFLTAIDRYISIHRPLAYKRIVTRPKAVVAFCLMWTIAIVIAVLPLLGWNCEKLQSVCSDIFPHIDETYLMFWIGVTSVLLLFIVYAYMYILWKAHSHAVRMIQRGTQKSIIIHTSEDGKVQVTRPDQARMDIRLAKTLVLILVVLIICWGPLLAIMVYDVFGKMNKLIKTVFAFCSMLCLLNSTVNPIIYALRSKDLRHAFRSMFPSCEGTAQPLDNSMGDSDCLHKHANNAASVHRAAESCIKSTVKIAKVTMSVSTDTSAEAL
Description: In vitro affinity for cannabinoid-CB1 receptors was determined using membrane preparations of Chinese hamster ovary (CHO) cells wherein human cannabinoid CB1 receptors were stably transfected in conjunction with [^3H]CP-55,940 as radioligand. After incubation of a freshly prepared cell membrane preparation with the [^3H]-ligand, with or without addition of compounds of the invention, separation of bound and free ligand was performed by filtration over glassfiber filters. Radioactivity on the filter was measured by liquid scintillation counting. The binding data were either obtained by CEREP (128, rue Danton, 92500 Rueil-Malmaison, France) or at Solvay Pharmaceuticals B.V. (C. J. van Houtenlaan 36, 1381 CP Weesp, The Netherlands).

[2] = target: T2, human cannabinoid CB2 receptors (Homo sapiens, UniProt P34972); assay: In vitro affinity for cannabinoid-CB2 receptors, [3H]CP-55,940 radioligand binding, CHO cell membranes; conditions: means of at least two independent experiments, read-out: receptor binding h-CB2 receptor Ki
T2 construct: expressed in transfected cells; host or cells: CHO cells, membrane preparations
T2 sequence (P34972 whole entry): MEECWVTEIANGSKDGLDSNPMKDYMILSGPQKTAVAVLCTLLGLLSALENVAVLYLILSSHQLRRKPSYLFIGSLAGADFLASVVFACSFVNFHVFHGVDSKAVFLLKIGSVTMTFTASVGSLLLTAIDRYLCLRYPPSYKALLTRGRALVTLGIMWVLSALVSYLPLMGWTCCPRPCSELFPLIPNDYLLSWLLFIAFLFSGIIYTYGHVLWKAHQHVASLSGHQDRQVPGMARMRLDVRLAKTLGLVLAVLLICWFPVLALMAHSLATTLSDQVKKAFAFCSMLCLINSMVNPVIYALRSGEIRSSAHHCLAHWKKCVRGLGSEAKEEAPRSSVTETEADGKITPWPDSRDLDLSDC
Description: In vitro affinity for cannabinoid-CB2 receptors was determined using membrane preparations of CHO cells wherein human cannabinoid CB2 receptors were stably transfected in conjunction with [^3H]CP-55,940 as radioligand. After incubation of a freshly prepared cell membrane preparation with the [^3H]-ligand, with or without addition of compounds of the invention, separation of bound and free ligand was performed by filtration over glassfiber filters. Radioactivity on the filter was measured by liquid scintillation counting.

rat CB1 receptor = target: T3, rat CB1 receptor (Rattus norvegicus, UniProt P20272); assay: In vivo cannabinoid-CB1 receptor antagonism, CP-55,940-induced hypotension test in rat; conditions: for ED50: rat, p.o., anaesthetized male rats, CP-55,940 0.1 mg/kg i.v., read-out: blood pressure rat CB1 receptor ED50 (mg/kg, p.o.)
T3 construct: Male normotensive rats (225-300 g; Harlan, Horst, The Netherlands) were anaesthetized; from tissue; host or cells: whole animal: male normotensive rats (Harlan)
T3 sequence (P20272 whole entry): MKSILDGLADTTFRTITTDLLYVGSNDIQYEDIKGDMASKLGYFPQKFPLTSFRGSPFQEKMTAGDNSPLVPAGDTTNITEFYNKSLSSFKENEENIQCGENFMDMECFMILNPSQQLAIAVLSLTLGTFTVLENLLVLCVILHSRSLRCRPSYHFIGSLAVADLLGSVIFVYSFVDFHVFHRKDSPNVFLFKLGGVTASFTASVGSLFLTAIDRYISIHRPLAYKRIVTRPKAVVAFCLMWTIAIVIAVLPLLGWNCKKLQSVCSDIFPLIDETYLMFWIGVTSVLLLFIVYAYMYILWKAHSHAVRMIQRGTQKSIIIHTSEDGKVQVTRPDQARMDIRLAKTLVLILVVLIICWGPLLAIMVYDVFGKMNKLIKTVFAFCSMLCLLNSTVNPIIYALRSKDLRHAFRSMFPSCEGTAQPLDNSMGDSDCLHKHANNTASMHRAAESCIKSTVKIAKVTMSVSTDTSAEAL
Description: In vivo cannabinoid-CB1 receptor antagonism was assessed with the CP-55,940-induced hypotension test in rat. Male normotensive rats (225-300 g; Harlan, Horst, The Netherlands) were anaesthetized with pentobarbital (80 mg/kg ip). Blood pressure was measured, via a cannula inserted into the left carotid artery, by means of a Spectramed DTX-plus pressure transducer (Spectramed B.V., Bilthoven, The Netherlands). After amplification by a Nihon Kohden Carrier Amplifier (Type AP-621G; Nihon Kohden B.V., Amsterdam, The Netherlands), the blood pressure signal was registered on a personal computer (Compaq Deskpro 386s), by means of a Po-Ne-Mah data-acquisition program (Po-Ne-Mah Inc., Storrs, USA). Heart rate was derived from the pulsatile pressure signal. All compounds were administered orally as a microsuspension in 1% methylcellulose 30 minutes before induction of the anesthesia, 60 minutes prior to administration of the CB1 receptor agonist CP-55,940. The injection volume was 10 ml/kg. After haemodynamic stabilization the CB1 receptor agonist CP-55,940 (0.1 mg/kg i.v.) was administered and the hypotensive effect established (Wagner 2001).

Row | Ki [1] | Structure (SMILES) | further results
1 | 10 nM | CN=C(NS(=O)(=O)N1CCCC(F)(F)C1)N1CC(c2ccccc2)C(c2ccc(Cl)cc2)=N1 (racemic) [compound 5, N-[(3,3-Difluoropiperidin-1-yl)sulfonyl]-N′-methyl-3-(4-chlorophenyl)-4-phenyl-4,5-dihydro-(1H)-pyrazole-1-carboxamidine] | melting point: 166 to 167 °C
2 | 16 nM | CN=C(NS(=O)(=O)N1CCCC(F)C1)N1CC(c2ccccc2)C(c2ccc(Cl)cc2)=N1 (racemic) [compound 4, N-[(3-Fluoropiperidin-1-yl)sulfonyl]-N′-methyl-3-(4-chlorophenyl)-4-phenyl-4,5-dihydro-(1H)-pyrazole-1-carboxamidine] | melting point: 170 to 171 °C
3 | 125 nM | CN=C(NS(=O)(=O)N1CCC(C(F)(F)F)CC1)N1C[C@@H](c2ccccc2)C(c2ccc(Cl)cc2)=N1 [compound 10, (+)-(4R)—N-[(4-(Trifluoromethyl)piperidin-1-yl)sulfonyl]-N′-methyl-3-(4-chlorophenyl)-4-phenyl-4,5-dihydro-(1H)-pyrazole-1-carboxamidine] | affinity for human CB1 receptors, fold less than that of compound 9 ([1]; distomer versus eutomer compound 9): about 40 fold; Ki [2]: > 1000 nM; in vivo activity in the hypotension test (rat CB1 receptor; given at 30 mg/kg): devoid of in vivo activity; ED50 (rat CB1 receptor): > 30 mg/kg
4 | 10 nM | CN=C(NS(=O)(=O)N1CCC(F)(F)CC1)N1CC(c2ccccc2)C(c2ccc(Cl)cc2)=N1 (racemic) [compound 1, N-[(4,4-difluoropiperidin-1-yl)sulfonyl]-N′-methyl-3-(4-chlorophenyl)-4-phenyl-4,5-dihydro-(1H)-pyrazole-1-carboxamidine] | 
5 | 152 nM | CN/C(=N/S(=O)(=O)N1CCCCC1)N1CC(c2ccccc2)C(c2ccc(Cl)cc2)=N1 (centres unmarked) [compound 21, reference compound] | 
6 | 763 nM | CNC(=NS(=O)(=O)N1CCCCC1)N1C[C@@H](c2ccccc2)C(c2ccc(Cl)cc2)=N1 [compound 25, reference compound] | 
7 | 58 nM | CN/C(=N/S(=O)(=O)N1CCCCC1)N1C[C@H](c2ccccc2)C(c2ccc(Cl)cc2)=N1 [compound 24, reference compound] | Ki [2]: 3500 nM; ED50 (rat CB1 receptor): 8 mg/kg
8 | 5 nM | CNC(=NS(=O)(=O)N1CCC(F)CC1)N1CC(c2ccccc2)C(c2ccc(Cl)cc2)=N1 (racemic) [compound 3, N-[(4-Fluoropiperidin-1-yl)sulfonyl]-N′-methyl-3-(4-chlorophenyl)-4-phenyl-4,5-dihydro-(1H)-pyrazole-1-carboxamidine] | 
9 | 3 nM | CN/C(=N\S(=O)(=O)N1CCC(C(F)(F)F)CC1)N1CC(c2ccccc2)C(c2ccc(Cl)cc2)=N1 (racemic) [compound 2, N-[(4-(Trifluoromethyl)piperidin-1-yl)sulfonyl]-N′-methyl-3-(4-chlorophenyl)-4-phenyl-4,5-dihydro-(1H)-pyrazole-1-carboxamidine] | 
10 | 5 nM | CN=C(NS(=O)(=O)N1CCC(F)(F)CC1)N1C[C@H](c2ccccc2)C(c2ccc(Cl)cc2)=N1 [compound 8, (−)-(4S)—N-[(4,4-difluoropiperidin-1-yl)sulfonyl]-N′-methyl-3-(4-chlorophenyl)-4-phenyl-4,5-dihydro-(1H)-pyrazole-1-carboxamidine] | factor of higher affinity for human CB1 receptors than non-fluorinated analog compound 24 [1]: 12 fold
11 | 3 nM | CN=C(NS(=O)(=O)N1CCC(C(F)(F)F)CC1)N1C[C@H](c2ccccc2)C(c2ccc(Cl)cc2)=N1 [compound 9, (−)-(4S)—N-[(4-(Trifluoromethyl)piperidin-1-yl)sulfonyl]-N′-methyl-3-(4-chlorophenyl)-4-phenyl-4,5-dihydro-(1H)-pyrazole-1-carboxamidine] | factor of higher affinity for human CB1 receptors than non-fluorinated analog compound 24 [1]: 19 fold; Ki [2]: 316 nM; in vivo activity after oral administration compared with compound 24 (rat CB1 receptor; oral administration, CP-55,940-induced hypotension test): more active; ED50 (rat CB1 receptor): 2 mg/kg
12 | 25 nM | CN(C)/C(=N/S(=O)(=O)N1CCC(F)(F)CC1)N1CC(c2ccccc2)C(c2ccc(Cl)cc2)=N1 (centres unmarked) [compound 7, N^2-[(4,4-Difluoropiperidin-1-yl)sulfonyl]-N^1-dimethyl-3-(4-chlorophenyl)-4-phenyl-4,5-dihydro-(1H)-pyrazole-1-carboxamidine] | 
13 | 10 nM | CCN=C(NS(=O)(=O)N1CCC(F)(F)CC1)N1CC(c2ccccc2)C(c2ccc(Cl)cc2)=N1 (racemic) [compound 6, N-[(4,4-Difluoropiperidin-1-yl)sulfonyl]-N′-ethyl-3-(4-chlorophenyl)-4-phenyl-4,5-dihydro-(1H)-pyrazole-1-carboxamidine] | 
